Experimental data published in ChEMBL document CHEMBL1135433 (J Med Chem, 2002).

Assay: Concentration required for 50% inhibition of Shiga-like toxin type 1 (Stx1A1)

Row | SMILES | IC50 [mM]
1 | Cc1nc2c(=O)[nH]c(N)nc2o1 | 1
2 | Nc1nc(O)c2nc(CNc3ccc(C(=O)O)cc3)cnc2n1 [PTEROIC ACID] | 0.6
3 | Cc1cc2c(O)[nH]c(N)nc-2n1 | 4.3
4 | Nc1nc2c(c(=O)[nH]1)CC=N2 | 2
